Assay results published in the supplement of paper PMC10627819.

Legend:
S. pneumoniae D39V [1] = assay: Bliss interaction score (quartile over a dose matrix) (fitness difference); higher = more antagonism (negative = synergy)
Summary of the method: (§1)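 Fitness is OD595 at stationary-phase entry relative to the plate's robust no-drug mean, capped at 1. Single-drug fitness was inferred from combinations. The Bliss score is observed minus product-expected fitness, summarised by quartiles over technical, biological and donor/recipient replicates.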

S. aureus Newman [2] = assay: as above
Summary of the method: as §1

S. aureus DSM 20231 = assay: as above
Summary of the method: as §1

B. subtilis 168 [3] = assay: as above
Summary of the method: as §1

S. pneumoniae D39V [4] = assay: fitness (endpoint OD595 vs no drug) (fraction); higher = more growth
Summary of the method: (§2)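 At 37 °C, bacteria in TSB, LB Lennox or CY were grown in 384-well plates from a starting OD595 of 0.01. OD595 was measured every 30 min for 14 h, with the first reading used as background. Fitness is the optical density at the switch to stationary phase as a fraction of the robust mean of no-drug control wells, capped at 1.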

S. aureus Newman [5] = assay: as above
Summary of the method: as §2

B. subtilis 168 [6] = assay: as above
Summary of the method: as §2
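For Bliss interaction score (quartile over a dose matrix) in this document: first quartile when negative (synergy) and third quartile when positive (antagonism).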

O=C(O[C@@H]1Cc2c(O)cc(O)cc2O[C@@H]1c1cc(O)c(O)c(O)c1)c1cc(O)c(O)c(O)c1 [EGCG] + CN[C@@H]1[C@H](O[C@H]2[C@H](O[C@H]3[C@H](O)[C@@H](O)[C@H](N=C(N)N)[C@@H](O)[C@@H]3N=C(N)N)O[C@@H](C)[C@]2(O)C=O)O[C@@H](CO)[C@H](O)[C@H]1O [Streptomycin]
Conditions | Bliss interaction score
B. subtilis 168 [3] | 0.303
S. aureus DSM 20231 | 0.136
S. aureus Newman [2] | 0.0695
S. pneumoniae D39V [1] | 0.0781

fitness
Conditions | first compound 6.25 µg/mL | first compound 12.5 µg/mL | first compound 25 µg/mL | first compound 50 µg/mL
B. subtilis 168 [6], partner 2 µg/mL | 0.918 | – | 0.325 | –
B. subtilis 168 [6], partner 4 µg/mL | 0.823 | 0.718 | 0.299 | –
B. subtilis 168 [6], partner 8 µg/mL | – | 0.522 | – | –
S. aureus Newman [5], partner 1 µg/mL | – | 0.774 | 0.773 | 0.713
S. aureus Newman [5], partner 2 µg/mL | – | 0.772 | 0.767 | 0.747
S. aureus Newman [5], partner 4 µg/mL | – | – | 0.453 | –
S. pneumoniae D39V [4], partner 2 µg/mL | – | 0.887 | 0.933 | 0.937
S. pneumoniae D39V [4], partner 4 µg/mL | – | 0.902 | 0.914 | 0.968
S. pneumoniae D39V [4], partner 8 µg/mL | – | 0.881 | 0.943 | 0.981

S. pneumoniae D39V [4], partner 16 µg/mL, one replicate
Conditions | fitness
first compound 12.5 µg/mL | 0.756
first compound 25 µg/mL | 0.759
first compound 50 µg/mL | 0.762

C/C(=C\C(=O)OCCCCCCCCC(=O)O)C[C@@H]1OC[C@H](C[C@@H]2O[C@H]2[C@@H](C)[C@H](C)O)[C@@H](O)[C@H]1O [Pseudomonic acid] + CN(N=O)C(=O)N[C@@H](C=O)[C@@H](O)[C@H](O)[C@H](O)CO [Streptozotocin]
Conditions | Bliss interaction score
B. subtilis 168 [3] | 0.105
S. aureus DSM 20231 | -0.011
S. aureus Newman [2] | -0.0211
S. pneumoniae D39V [1] | -0.0598

fitness, S. pneumoniae D39V [4]
Conditions | first compound 0.03 µg/mL | first compound 0.06 µg/mL | first compound 0.12 µg/mL
partner 1.2 µg/mL | 0.834 | 0.722 | 0.533
partner 2.4 µg/mL | 0.885 | 0.718 | 0.538
partner 4.8 µg/mL | 0.874 | 0.752 | 0.56

fitness, S. aureus Newman [5], one replicate
Conditions | first compound 0.0313 µg/mL | first compound 0.0625 µg/mL | first compound 0.125 µg/mL
partner 0.15 µg/mL | 0.0359 | 0.0417 | 0.0264
partner 0.3 µg/mL | 0.0204 | 0.0023 | 0.0089
partner 0.6 µg/mL | 0.0135 | 0.0039 | 0.0091

O=C(N[C@H](CO)[C@H](O)c1ccc([N+](=O)[O-])cc1)C(Cl)Cl [Chloramphenicol] + O=C(O)c1cn(C2CC2)c2cc(N3CCNCC3)c(F)cc2c1=O [Ciprofloxacin]
Conditions | Bliss interaction score
B. subtilis 168 [3] | 0.161
S. aureus DSM 20231 | 0.0505
S. aureus Newman [2] | 0.126
S. pneumoniae D39V [1] | -0.0621

fitness, S. aureus Newman [5]
Conditions | first compound 0.75 µg/mL | first compound 1.5 µg/mL | first compound 3 µg/mL
partner 0.0375 µg/mL | 0.644 | 0.487 | 0.154
partner 0.075 µg/mL | 0.621 | 0.496 | 0.182
partner 0.15 µg/mL | 0.155 | 0.212 | –

C/C(=C\C(=O)OCCCCCCCCC(=O)O)C[C@@H]1OC[C@H](C[C@@H]2O[C@H]2[C@@H](C)[C@H](C)O)[C@@H](O)[C@H]1O [Pseudomonic acid] + Cn1nnc(-c2ccc(-c3ccc(N4C[C@H](CO)OC4=O)cc3F)cn2)n1 [Tedizolid]
Conditions | Bliss interaction score
B. subtilis 168 [3] | -0.0611
S. aureus DSM 20231 | 0.0061
S. aureus Newman [2] | 0.011
S. pneumoniae D39V [1] | 0.21

fitness, S. pneumoniae D39V [4]
Conditions | partner 0.03125 µg/mL | partner 0.0625 µg/mL | partner 0.125 µg/mL | partner 0.25 µg/mL | partner 0.5 µg/mL
first compound 0.03 µg/mL | 0.963 | 0.965 | 0.82 | 0.777 | –
first compound 0.06 µg/mL | 0.881 | 0.9 | 0.759 | 0.767 | 0.516
first compound 0.12 µg/mL | 0.925 | 0.923 | 0.707 | 0.587 | 0.382

fitness, S. aureus Newman [5], one replicate
Conditions | first compound 0.0313 µg/mL | first compound 0.0625 µg/mL | first compound 0.125 µg/mL
partner 0.0625 µg/mL | 0.0219 | 0.0311 | 0.031
partner 0.125 µg/mL | 0.0244 | 0.0131 | 0.0219
partner 0.25 µg/mL | 0.0038 | 0.0239 | 0.018

C/C(=C\C(=O)OCCCCCCCCC(=O)O)C[C@@H]1OC[C@H](C[C@@H]2O[C@H]2[C@@H](C)[C@H](C)O)[C@@H](O)[C@H]1O [Pseudomonic acid] + Cc1cc(NS(=O)(=O)c2ccc(N)cc2)no1 [Sulfamethoxazol]
Conditions | Bliss interaction score
B. subtilis 168 [3] | -0.0453
S. aureus DSM 20231 | -0.0246
S. aureus Newman [2] | -0.0317
S. pneumoniae D39V [1] | -0.0659

fitness, S. pneumoniae D39V [4]
Conditions | first compound 0.03 µg/mL | first compound 0.06 µg/mL | first compound 0.12 µg/mL
partner 1 µg/mL | 0.907 | 0.784 | –
partner 2 µg/mL | 0.896 | 0.776 | –
partner 4 µg/mL | 0.877 | 0.769 | 0.579

fitness, S. aureus Newman [5], one replicate
Conditions | first compound 0.0313 µg/mL | first compound 0.0625 µg/mL | first compound 0.125 µg/mL
partner 1 µg/mL | 0.0339 | 0.0352 | 0.0377
partner 2 µg/mL | 0.0298 | 0.0242 | 0.0254
partner 4 µg/mL | 0.0109 | 0.0216 | 0.0232

O=C(O[C@@H]1Cc2c(O)cc(O)cc2O[C@@H]1c1cc(O)c(O)c(O)c1)c1cc(O)c(O)c(O)c1 [EGCG] + C/C(=C\C(=O)OCCCCCCCCC(=O)O)C[C@@H]1OC[C@H](C[C@@H]2O[C@H]2[C@@H](C)[C@H](C)O)[C@@H](O)[C@H]1O [Pseudomonic acid]
Conditions | Bliss interaction score
B. subtilis 168 [3] | -0.06
S. aureus DSM 20231 | -0.014
S. aureus Newman [2] | 0.0163
S. pneumoniae D39V [1] | -0.0856

fitness, S. pneumoniae D39V [4]
Conditions | first compound 12.5 µg/mL | first compound 25 µg/mL | first compound 50 µg/mL
partner 0.03 µg/mL | 0.879 | 0.953 | 0.926
partner 0.06 µg/mL | 0.74 | 0.824 | –
partner 0.12 µg/mL | 0.494 | – | 0.545

fitness, S. aureus Newman [5], one replicate
Conditions | first compound 12.5 µg/mL | first compound 25 µg/mL | first compound 50 µg/mL
partner 0.0313 µg/mL | 0.0563 | 0.0468 | 0.0316
partner 0.0625 µg/mL | 0.0491 | 0.0391 | 0.0458
partner 0.125 µg/mL | 0.0477 | 0.0401 | 0.0275

CCC[C@@H]1C[C@@H](C(=O)N[C@@H]([C@H]2O[C@H](SC)[C@H](O)[C@@H](O)[C@H]2O)[C@H](C)Cl)N(C)C1 [Clindamycin] + C/C(=C\C(=O)OCCCCCCCCC(=O)O)C[C@@H]1OC[C@H](C[C@@H]2O[C@H]2[C@@H](C)[C@H](C)O)[C@@H](O)[C@H]1O [Pseudomonic acid]
Conditions | Bliss interaction score
B. subtilis 168 [3] | 0.0726
S. aureus DSM 20231 | 0.0297
S. aureus Newman [2] | 0.0412
S. pneumoniae D39V [1] | -0.15

fitness, S. pneumoniae D39V [4]
Conditions | first compound 0.0125 µg/mL | first compound 0.015 µg/mL | first compound 0.025 µg/mL | first compound 0.03 µg/mL | first compound 0.05 µg/mL | first compound 0.06 µg/mL
partner 0.03 µg/mL | 0.78 | 0.836 | 0.499 | 0.703 | 0.211 | –
partner 0.06 µg/mL | 0.716 | 0.69 | 0.4 | – | 0.17 | 0.281
partner 0.12 µg/mL | 0.237 | 0.326 | 0.119 | 0.229 | 0.0924 | 0.16

fitness, S. aureus Newman [5], one replicate
Conditions | first compound 0.0312 µg/mL | first compound 0.0625 µg/mL | first compound 0.125 µg/mL
partner 0.0313 µg/mL | 0.0504 | 0.0504 | 0.0456
partner 0.0625 µg/mL | 0.046 | 0.0445 | 0.0496
partner 0.125 µg/mL | 0.0438 | 0.0538 | 0.0533

C/C(=C\C(=O)OCCCCCCCCC(=O)O)C[C@@H]1OC[C@H](C[C@@H]2O[C@H]2[C@@H](C)[C@H](C)O)[C@@H](O)[C@H]1O [Pseudomonic acid] + COc1ccc(C[C@H](N)C(=O)N[C@H]2[C@@H](O)[C@H](n3cnc4c(N(C)C)ncnc43)O[C@@H]2CO)cc1 [Puromycin]
Conditions | Bliss interaction score
B. subtilis 168 [3] | -0.0341
S. aureus DSM 20231 | 0.01
S. aureus Newman [2] | 0.0128
S. pneumoniae D39V [1] | -0.209

fitness, S. pneumoniae D39V [4]
Conditions | first compound 0.03 µg/mL | first compound 0.06 µg/mL | first compound 0.12 µg/mL
partner 1 µg/mL | 0.901 | 0.774 | 0.556
partner 2 µg/mL | 0.896 | 0.73 | 0.428
partner 4 µg/mL | 0.735 | 0.491 | 0.246

fitness, S. aureus Newman [5], one replicate
Conditions | first compound 0.0313 µg/mL | first compound 0.0625 µg/mL | first compound 0.125 µg/mL
partner 0.39 µg/mL | 0.0558 | 0.0476 | 0.0585
partner 0.78 µg/mL | 0.0593 | 0.043 | 0.0499
partner 1.56 µg/mL | 0.054 | 0.0656 | 0.0613
